Measured values taken from ChEMBL document CHEMBL5370552, “Rational design and evaluation of 2-((pyrrol-2-yl)methylene)thiophen-4-ones as RNase L inhibitors” (Eur J Med Chem, 2023).
Active and inactive are the calls of the source. No cut-off for these calls is given here.

Key:
[1] = target: T1, 2-5A-dependent ribonuclease (Homo sapiens) (UniProt Q05823); assay: Inhibition of his6-tagged full length human RNase L expressed in insect cells at 250 uM incubated for 30 min by FRET assay relative to control
T1 sequence (whole entry): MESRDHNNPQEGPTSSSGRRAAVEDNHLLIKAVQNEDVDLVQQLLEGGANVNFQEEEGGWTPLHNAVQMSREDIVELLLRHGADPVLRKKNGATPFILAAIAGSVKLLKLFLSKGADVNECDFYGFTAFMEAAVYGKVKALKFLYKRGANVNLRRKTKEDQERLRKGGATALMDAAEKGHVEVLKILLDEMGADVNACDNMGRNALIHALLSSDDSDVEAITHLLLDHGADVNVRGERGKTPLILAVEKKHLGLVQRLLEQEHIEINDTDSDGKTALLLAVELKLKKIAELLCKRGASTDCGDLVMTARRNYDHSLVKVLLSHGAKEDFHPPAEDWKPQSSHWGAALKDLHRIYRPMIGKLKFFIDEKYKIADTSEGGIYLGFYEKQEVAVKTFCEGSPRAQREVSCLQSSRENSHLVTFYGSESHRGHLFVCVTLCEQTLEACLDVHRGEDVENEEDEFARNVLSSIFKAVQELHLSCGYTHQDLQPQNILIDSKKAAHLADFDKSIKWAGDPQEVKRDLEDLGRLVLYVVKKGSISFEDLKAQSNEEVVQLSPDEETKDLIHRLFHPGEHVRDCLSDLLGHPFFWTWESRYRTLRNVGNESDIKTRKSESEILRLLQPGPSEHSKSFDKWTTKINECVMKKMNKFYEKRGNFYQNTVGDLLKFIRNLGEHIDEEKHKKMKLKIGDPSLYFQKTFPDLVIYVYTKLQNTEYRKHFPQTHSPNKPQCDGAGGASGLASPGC

[2] = target: T2, 2-5A-dependent ribonuclease (Homo sapiens, UniProt Q05823); assay: Inhibition of his6-tagged full length human RNase L expressed in insect cells incubated for 30 min by FRET assay
T2 sequence (Q05823 whole entry): T1 sequence (whole entry)

[3] = target: T1, 2-5A-dependent ribonuclease (Homo sapiens); assay: Inhibition of his6-tagged full length human RNase L expressed in insect cells at 130 uM incubated for 30 min by FRET assay relative to control
[4] = target: T1, 2-5A-dependent ribonuclease (Homo sapiens); assay: Potency index, ratio of sunitinib IC50 to test compound IC50 for inhibition of his6-tagged full length human RNase L expressed in insect cells incubated for 30 min by FRET assay
[5] = target: T1, 2-5A-dependent ribonuclease (Homo sapiens); assay: Inhibition of his6-tagged full length human RNase L expressed in insect cells at 250 uM incubated for 30 mins in presence of 2-5A and ATP by gel based RNA cleavage assay relative to control
[6] = target: T1, 2-5A-dependent ribonuclease (Homo sapiens); assay: Inhibition of his6-tagged full length human RNase L expressed in insect cells incubated for 30 mins in presence of 2-5A and ATP by gel based RNA cleavage assay; details: dose 250.0 µM
[7] = target: T1, 2-5A-dependent ribonuclease (Homo sapiens); assay: Binding affinity to his6-tagged full length human RNase L expressed in insect cells by biolayer interferometry analysis
[8] = target: T1, 2-5A-dependent ribonuclease (Homo sapiens); assay: Inhibition of RNase L in human HeLa cells assessed as ribosomal RNA degradation at 2 uM incubated for 4 hrs by NanoDrop spectrophotometry analysis; type: cell-based
[9] = target: T1, 2-5A-dependent ribonuclease (Homo sapiens); assay: Inhibition of RNase L in human HeLa cells assessed as ribosomal RNA degradation at 10 uM incubated for 4 hrs by NanoDrop spectrophotometry analysis relative to control; type: cell-based

| Compound | inhibition [1] | other results |
| --- | --- | --- |
| CCN(CC)CCNC(=O)c1c(C)[nH]c(/C=C2/OC(Nc3cccc(F)c3)=C(C(=O)NCCN)C2=O)c1C | 97% | IC50 [2]: 41.9 µM |
| CCOC(=O)C1=C(Nc2ccccc2Br)S/C(=C/c2[nH]c(C)c(C(=O)NCCN(CC)CC)c2C)C1=O | 85% |  |
| CCN(CC)CCNC(=O)c1c(C)[nH]c(/C=C2/OC(Nc3ccccc3)=C(C(=O)NC)C2=O)c1C | 74% |  |
| CCOC(=O)C1=C(Nc2cccc(OC)c2)S/C(=C/c2[nH]c(C)c(C(=O)NCCN(CC)CC)c2C)C1=O | 78% |  |
| CCN(CC)CCNC(=O)c1c(C)[nH]c(/C=C2/OC(Nc3ccccc3)=C(C(=O)NCCN)C2=O)c1C | 93% |  |
| CCOC(=O)C1=C(Nc2ccc(Br)cc2)S/C(=C/c2[nH]c(C)c(C(=O)NCCN(CC)CC)c2C)C1=O | 90% |  |
| CCN(CC)CCNC(=O)c1c(C)[nH]c(/C=C2/SC(Nc3ccccc3)=C(C(=O)NC)C2=O)c1C | 67% |  |
| CCN(CC)CCNC(=O)c1c(C)[nH]c(/C=C2/SC(Nc3cccc([N+](=O)[O-])c3)=C(C(=O)NC)C2=O)c1C |  | inhibition [3]: 60% |
| CCN(CC)CCNC(=O)c1c(C)[nH]c(/C=C2/SC(Nc3cccc(OC)c3)=C(C(=O)NCCN)C2=O)c1C | 101% | IC50 [2]: 13 µM; Ratio IC50 [4]: 30; inhibition [5]: 100%; inhibition [6]: Dose-Dependent Effect; Activity [7]: Active |
| CCN(CC)CCNC(=O)c1c(C)[nH]c(/C=C2/SC(Nc3cccc(F)c3)=C(C(=O)NCc3ccccc3)C2=O)c1C | 99% |  |
| CCOC(=O)C1=C(Nc2ccc(F)cc2)S/C(=C/c2[nH]c(C)c(C(=O)NCCN(CC)CC)c2C)C1=O | 80% |  |
| CCN(CC)CCNC(=O)c1c(C)[nH]c(/C=C2/SC(Nc3cccc(OC)c3)=C(C(=O)NCCNC(=O)OC(C)(C)C)C2=O)c1C |  | inhibition [3]: 49% |
| CCN(CC)CCNC(=O)c1c(C)[nH]c(/C=C2/SC(Nc3cccc(F)c3)=C(C(=O)NCCNC(=O)OC(C)(C)C)C2=O)c1C | 100% |  |
| CCOC(=O)C1=C(Nc2cccc([N+](=O)[O-])c2)S/C(=C/c2[nH]c(C)c(C(=O)NCCN(CC)CC)c2C)C1=O | 76% |  |
| CCOC(=O)C1=C(Nc2ccc(C)cc2)S/C(=C/c2[nH]c(C)c(C(=O)NCCN(CC)CC)c2C)C1=O | 83% |  |
| CCOC(=O)C1=C(Nc2ccc(OC)cc2)S/C(=C/c2[nH]c(C)c(C(=O)NCCN(CC)CC)c2C)C1=O | 70% |  |
| CCOC(=O)C1=C(Nc2ccccc2)S/C(=C/c2[nH]c(C)c(C(=O)NCCN(CC)CC)c2C)C1=O | 78% |  |
| CCN(CC)CCNC(=O)c1c(C)[nH]c(/C=C2/SC(Nc3cccc(F)c3)=C(C(=O)NCCN)C2=O)c1C | 102% | IC50 [2]: 16 µM; inhibition [5]: 100%; inhibition [6]: Dose-Dependent Effect; Activity [7]: Active; inhibition [8]: Active; inhibition [9]: 100% |

| Compound | inhibition [1] | other results |
| --- | --- | --- |
| CCN(CC)CCNC(=O)c1c(C)[nH]c(/C=C2/OC(Nc3ccccc3)=C(C(=O)NCCNC(=O)OC(C)(C)C)C2=O)c1C | 79% |  |
| CCOC(=O)C1=C(Nc2ccc([N+](=O)[O-])cc2)S/C(=C/c2[nH]c(C)c(C(=O)NCCN(CC)CC)c2C)C1=O | 67% |  |
| CCN(CC)CCNC(=O)c1c(C)[nH]c(/C=C2/SC(Nc3cccc(OC)c3)=C(C(=O)NC)C2=O)c1C | 99% |  |
| CCN(CC)CCNC(=O)c1c(C)[nH]c(/C=C2/SC(Nc3cccc(Cl)c3)=C(C(=O)NC)C2=O)c1C |  | inhibition [3]: 88% |
| CCN(CC)CCNC(=O)c1c(C)[nH]c(/C=C2/SC(Nc3cccc(Cl)c3)=C(C(=O)NCCNC(=O)OC(C)(C)C)C2=O)c1C | 96% |  |
| CCN(CC)CCNC(=O)c1c(C)[nH]c(/C=C2/SC(Nc3ccc(F)cc3)=C(C(=O)NC)C2=O)c1C | < 5% |  |
| CCOC(=O)C1=C(Nc2ccc(OC)c(OC)c2)S/C(=C/c2[nH]c(C)c(C(=O)NCCN(CC)CC)c2C)C1=O | 79% |  |
| CCOC(=O)C1=C(Nc2cccc(F)c2)S/C(=C/c2[nH]c(C)c(C(=O)NCCN(CC)CC)c2C)C1=O | 76% |  |
| CCN(CC)CCNC(=O)c1c(C)[nH]c(/C=C2/SC(Nc3ccccc3)=C(C(=O)NCCN)C2=O)c1C | 101% | IC50 [2]: 28 µM |
| CCOC(=O)C1=C(Nc2ccc(C(F)(F)F)cc2)S/C(=C/c2[nH]c(C)c(C(=O)NCCN(CC)CC)c2C)C1=O | 90% |  |
| CCN(CC)CCNC(=O)c1c(C)[nH]c(/C=C2/SC(Nc3ccccc3)=C(C(=O)NCCNC(=O)OC(C)(C)C)C2=O)c1C | 75% |  |
| CCN(CC)CCNC(=O)c1c(C)[nH]c(/C=C2/OC(Nc3cccc(F)c3)=C(C(=O)NCCNC(=O)OC(C)(C)C)C2=O)c1C | 84% |  |
| CCN(CC)CCNC(=O)c1c(C)[nH]c(/C=C2/SC(Nc3cccc(C(F)(F)F)c3)=C(C(=O)NC)C2=O)c1C |  | inhibition [3]: 97% |
| CCN(CC)CCNC(=O)c1c(C)[nH]c(/C=C2/SC(Nc3cccc(F)c3)=C(C(=O)NC)C2=O)c1C | 58% |  |
| CCN(CC)CCNC(=O)c1c(C)[nH]c(/C=C2/SC(Nc3cccc(Cl)c3)=C(C(=O)NCCN)C2=O)c1C | 101% | IC50 [2]: 12 µM; inhibition [5]: 100%; inhibition [6]: Dose-Dependent Effect; Activity [7]: Active |
| CCN(CC)CCNC(=O)c1c(C)[nH]c(/C=C2\C(=O)Nc3ccc(F)cc32)c1C | 83% |  |
| CCOC(=O)C1=C(Nc2ccc(CC)cc2)S/C(=C/c2[nH]c(C)c(C(=O)NCCN(CC)CC)c2C)C1=O | 83% |  |
